# Laboratory results from patent publication US20150118229A1, “JAK1 SELECTIVE INHIBITOR AND USES THEREOF” (ABBVIE INC., priority 2013, published 2015).
# “And” between values parts separate entries of the source, which are not always exact repeats. Identical values can stand only once. “Also recorded” adds a separate entry of the source. Like-named read-outs stand apart in the source and are kept apart here.
# Tests used:
# [1] = tested on: IL-15 signaling; assay: Whole blood assay IL-15 pSTAT5 CD3+; assay type: cell-based
# [2] = tested on: IFN-γ; assay: Concanavalin A-induced IFN-γ in Lewis rats; assay type: in vivo; conditions: oral, 30 min prior to i.v. Con A
# Description: The test compound is formulated in an inert vehicle (for example but not limited to 0.5% hydroxypropylmethyl cellulose (Sigma, cat #H3785)/0.02% Tween 80 (Sigma, cat #4780) in water) at the desired concentration to achieve doses in the range of 0.01-100 mg/kg. Six-week-old male Lewis rats (125 g-150 g) (Charles River Laboratories) are dosed with the compound orally, at time zero (0 min). After about 30 min the rats are injected intravenously (i.v.) with 10 mg/kg Concanavalin A (Con A, AmershamBioscience, cat #17-0450-01) dissolved in PBS (Invitrogen, cat #14190). About 4 h later, the rats are cardiac bled and their plasma is analyzed for levels of IL-2 (ELISA kit: R&D Systems cat #R2000) and IFN-γ (ELISA kit: R&D Systems cat #RIF00).
# The rat concanavalin A (Con A) model was selected as the acute screening model because it provides an assessment of oral bioavailability, as well as a rapid measurement of effects on Jak1-dependent mechanisms. Intravenous injection of Con A into Lewis rats results in T cell receptor ligation and activation, leading to IL-2 release and IFN-γ induction by an autocrine mechanism. IL-2 release is Jak-independent, whereas IFN-γ induction is blocked by Jak1 inhibitors.
# Plasma levels of IFN-γ and IL-2 are assessed 4 hours later in a terminal bleed.
# [3] = tested on: adjuvant-induced arthritis (paw swelling, bone erosion); assay: Adjuvant-induced arthritis (AIA) in Lewis rats; assay type: in vivo
# Description: The inflammation appears in the contra-lateral (left) hind paw seven days after the initial immunization. […] Rats are lightly anesthetized with an inhalant anesthetic (isoflurane) and the contra-lateral (left) hind paw is dipped into the plethysmograph and the paw volume is recorded. The rats are scored every other day up to day 17 after immunization. […] Bone volume and density is determined for a 360 μm (200 slice) vertical section encompassing the tarsal section of the paw. […] Drug exposure is determined in the plasma using LC/MS.
# [4] = Pharmacokinetics in monkey; assay type: in vivo; conditions: for Vd: read-out: Vss
# [5] = [14C]Compound 1 absorption and excretion in bile duct-cannulated rats; assay type: in vivo, Sprague-Dawley male rats
# [6] = Metabolic stability in liver microsomes, rat; assay type: in vitro ADME; conditions: read-out: intrinsic clearance in liver microsomes (scaled) (converted)
# [7] = Metabolic stability in hepatocytes, human; assay type: in vitro ADME; conditions: read-out: intrinsic clearance in hepatocytes (converted)
# [8] = tested on: CYP3A4; assay: CYP induction (mRNA) in human hepatocytes, CYP3A4; assay type: in vitro ADME; conditions: 1, 3, and 10 μM
# [9] = Non-GLP 4-week oral screening toxicity study in dogs; assay type: in vivo, beagle dogs; conditions: dog, 4 weeks
# [10] = rat, in vivo
# Description: The 4-week rat study was conducted at dose levels of 0, 10, 50, 100, and 200 mg/kg/day by daily oral administration (gavage). […] The cause of death was not determined for animals that died.
# [11] = target: OAT3 (Homo sapiens, UniProt Q8TCC7); assay: Transporter inhibition, OAT3
# Chain of OAT3 (Q8TCC7 whole entry): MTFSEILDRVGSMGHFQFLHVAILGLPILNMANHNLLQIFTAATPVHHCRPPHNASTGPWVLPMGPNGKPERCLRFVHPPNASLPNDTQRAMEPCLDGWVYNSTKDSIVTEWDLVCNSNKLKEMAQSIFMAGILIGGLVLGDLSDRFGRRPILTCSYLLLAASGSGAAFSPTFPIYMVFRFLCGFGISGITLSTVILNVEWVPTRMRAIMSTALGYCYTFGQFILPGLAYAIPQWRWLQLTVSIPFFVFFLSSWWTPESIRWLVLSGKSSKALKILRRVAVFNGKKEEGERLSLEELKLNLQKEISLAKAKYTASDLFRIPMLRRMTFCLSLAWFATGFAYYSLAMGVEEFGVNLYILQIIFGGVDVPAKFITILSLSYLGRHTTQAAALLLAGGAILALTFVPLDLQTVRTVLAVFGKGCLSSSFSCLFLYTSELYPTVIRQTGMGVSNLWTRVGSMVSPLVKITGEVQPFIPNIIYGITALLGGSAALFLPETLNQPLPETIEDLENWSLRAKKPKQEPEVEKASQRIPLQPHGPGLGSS
# [12] = target: OATP1B1 (Homo sapiens, UniProt Q9Y6L6); assay: Transporter inhibition, OATP1B1
# Chain of OATP1B1 (Q9Y6L6 whole entry): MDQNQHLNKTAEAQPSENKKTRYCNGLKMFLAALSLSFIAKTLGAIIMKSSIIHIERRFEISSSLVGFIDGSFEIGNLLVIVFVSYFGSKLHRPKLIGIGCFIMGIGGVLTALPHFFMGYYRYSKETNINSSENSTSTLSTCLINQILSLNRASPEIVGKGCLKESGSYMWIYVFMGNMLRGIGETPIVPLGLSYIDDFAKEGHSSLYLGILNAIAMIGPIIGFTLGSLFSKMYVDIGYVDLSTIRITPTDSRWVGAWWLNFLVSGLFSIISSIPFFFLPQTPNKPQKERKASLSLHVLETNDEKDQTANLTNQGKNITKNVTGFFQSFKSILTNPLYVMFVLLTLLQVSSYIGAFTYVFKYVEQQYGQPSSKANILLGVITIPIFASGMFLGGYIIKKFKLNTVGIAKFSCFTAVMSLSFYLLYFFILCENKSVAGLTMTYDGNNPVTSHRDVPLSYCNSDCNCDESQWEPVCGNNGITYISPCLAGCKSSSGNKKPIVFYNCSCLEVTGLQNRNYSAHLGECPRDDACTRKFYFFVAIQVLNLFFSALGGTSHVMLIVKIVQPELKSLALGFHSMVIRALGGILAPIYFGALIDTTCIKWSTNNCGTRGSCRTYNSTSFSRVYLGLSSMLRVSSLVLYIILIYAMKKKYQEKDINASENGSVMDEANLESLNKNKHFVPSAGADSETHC
# [13] = target: CYP2D6 (Homo sapiens, UniProt P10635); assay: CYP inhibition in human liver microsomes, CYP2D6
# Chain of CYP2D6 (P10635 whole entry): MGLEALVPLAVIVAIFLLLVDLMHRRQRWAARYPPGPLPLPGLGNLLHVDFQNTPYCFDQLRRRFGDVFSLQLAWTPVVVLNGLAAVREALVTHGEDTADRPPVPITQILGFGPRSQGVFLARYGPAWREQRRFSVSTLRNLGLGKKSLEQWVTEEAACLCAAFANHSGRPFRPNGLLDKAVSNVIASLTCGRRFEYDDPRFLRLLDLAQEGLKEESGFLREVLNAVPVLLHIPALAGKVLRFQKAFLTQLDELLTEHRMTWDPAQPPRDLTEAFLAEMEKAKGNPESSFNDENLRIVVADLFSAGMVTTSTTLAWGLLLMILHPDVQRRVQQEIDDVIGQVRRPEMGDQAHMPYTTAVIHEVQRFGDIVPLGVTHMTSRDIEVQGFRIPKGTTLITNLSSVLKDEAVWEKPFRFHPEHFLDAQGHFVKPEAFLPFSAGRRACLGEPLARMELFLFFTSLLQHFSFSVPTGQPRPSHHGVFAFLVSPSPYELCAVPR
# [14] = target: CYP3A4 (midazolam/testosterone) (Homo sapiens, UniProt P08684); assay: CYP inhibition in human liver microsomes, CYP3A4
# Chain of CYP3A4 (midazolam/testosterone) (P08684 whole entry): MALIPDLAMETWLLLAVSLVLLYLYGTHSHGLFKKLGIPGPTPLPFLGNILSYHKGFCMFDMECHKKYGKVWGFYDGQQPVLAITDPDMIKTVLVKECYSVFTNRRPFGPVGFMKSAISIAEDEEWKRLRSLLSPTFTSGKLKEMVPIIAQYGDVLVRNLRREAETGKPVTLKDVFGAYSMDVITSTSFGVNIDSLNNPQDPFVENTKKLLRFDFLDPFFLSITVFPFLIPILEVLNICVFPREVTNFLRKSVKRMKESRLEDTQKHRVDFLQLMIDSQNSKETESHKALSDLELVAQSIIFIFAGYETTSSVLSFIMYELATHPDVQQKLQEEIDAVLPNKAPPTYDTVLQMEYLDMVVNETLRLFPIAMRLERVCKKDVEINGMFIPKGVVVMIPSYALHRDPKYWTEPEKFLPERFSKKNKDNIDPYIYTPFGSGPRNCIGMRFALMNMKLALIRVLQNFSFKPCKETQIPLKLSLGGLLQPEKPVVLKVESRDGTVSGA
# [15] = tested on: IL-7-induced pSTAT5; assay: Ex vivo stimulation assay IL-7 pSTAT5, orally dosed healthy human subjects; conditions: oral
# [16] = plasma, oral 1 mg/kg single dose, mean (SD)
# [17] = plasma, oral 10 mg/kg single dose, mean (SD)
structure (smiles),measurement,setting,value
"CC[C@@H]1CN(C(=O)NCC(F)(F)F)C[C@@H]1c1cnc2cnc3[nH]ccc3n12 [Compound 1, (3S,4R)-3-ethyl-4-(3H-imidazo[1,2-a]pyrrolo[2,3-e]pyrazin-8-yl)-N-(2,2,2-trifluoroethyl)pyrrolidine-1-carboxamide]",IC50,"[1]; read-out: IL-15 (pSTAT5, CD3+)",0.016 µM
same,IC50,"[1]; whole blood, read-out: IC50 IL-15 pSTAT5 CD3+",0.016 µM
same,ED50,"[2]; Rattus norvegicus, read-out: ED50, inhibition of IFN-γ release",0.4 mg/kg
same,"ED80, inhibition of IFN-γ release",[2],5.8 mg/kg
same,"protection of bone erosion (tarsal bone volume, micro CT)",[3]; 3 mg/kg bid,complete protection
same,"efficacious exposure (AUC60), PK/PD modeling","[3]; AIA rats, about 60% inhibition of paw swelling",85 ng·h/mL
same,"AUC60 (60% inhibition of paw swelling), total AUC0-12","[3]; oral bid, last day of study",85 ± 20 ng·h/mL and 85 ng·h/mL
same,"AUC60, fraction unbound AUC0-12","[3]; oral bid, last day of study",34 ± 7 ng·h/mL
same,Paw Swelling (exposure),[3]; rat AIA,62 ng·h/mL
same,inhibition of Paw Swelling reached at about the same level of reticulocyte inhibition,[3]; rat AIA vs reticulocyte deployment,about 80%
same,Vc,[4]; IV 0.1 mg/kg single dose,1.2 L/kg
same,Vβ,[4]; IV 0.1 mg/kg single dose,2.2 L/kg
same,Vc,[4]; IV 1.0 mg/kg single dose,1.0 L/kg
same,Vβ,[4]; IV 1.0 mg/kg single dose,2.2 L/kg
same,F,"[4]; oral 1 mg/kg single dose, mean (SD), 1 mg/kg",59.3% and 59.3 (18.1) %
same,F,"[4]; oral 10 mg/kg single dose, mean (SD)",52.3 (12.4) %
same,AUC(0-inf),"[4]; plasma, IV 0.1 mg/kg single dose, mean (SD)",72 ng·h/mL
same,clearance,"[4]; plasma, IV 0.1 mg/kg single dose, mean (SD), read-out: CLp (converted)",23.3 mL/min/kg
same,Vd,"[4]; plasma, IV 0.1 mg/kg single dose",1.9 L/kg
same,half-life,"[4]; plasma, IV 0.1 mg/kg single dose, read-out: t1/2 (converted)",1.1 h
same,AUC(0-inf),"[4]; plasma, IV 1.0 mg/kg single dose, mean (SD)",947 ng·h/mL
same,clearance,"[4]; plasma, IV 1.0 mg/kg single dose, mean (SD), read-out: CLp (converted)",20 mL/min/kg
same,Vd,"[4]; plasma, IV 1.0 mg/kg single dose",1.6 L/kg
same,half-life,"[4]; plasma, IV 1.0 mg/kg single dose, read-out: t1/2 (converted)",1.3 h
same,clearance,"[4]; plasma, IV, read-out: clearance (converted)",21.7 mL/min/kg
same,half-life,"[4]; plasma, IV, read-out: plasma elimination t½ (converted)",1.2 h
same,AUC(0-inf),[4]; [16],562 ng·h/mL
same,Cmax,[4]; [16],134 ng/mL
same,AUC(0-inf),[4]; [17],4950 ng·h/mL
same,Cmax,[4]; [17],960 ng/mL
same,Tmax,[4]; [17],4.3 h
same,mean total recovery of dosed radioactivity,[5]; intravenous,96.0%
same,radioactivity excreted into bile,[5]; intravenous,49.7 % of dose
same,radioactivity excreted into urine,[5]; intravenous,23.7 % of dose
same,mean total recovery of dosed radioactivity,[5]; oral,96.8%
same,parent drug excreted unchanged in urine,[5]; oral,9%
same,radioactivity excreted into bile,[5]; oral,52.6 % of dose
same,radioactivity excreted into urine,[5]; oral,11.1 % of dose
same,dose absorbed (radioactivity in bile and urine),[5]; single oral dose 3 mg/kg,at least 63.7%
same,CLint scaled at 0.5 μM,[6],84.7 mL/min/kg
same,CLint scaled at 1 μM,[7],6.1 mL/min/kg
same,mRNA expression of CYP3A4,[8],did not increase
same,NOAEL,[9]; 5 mg/kg/day,None
same,Adverse Findings,[9]; leading number = dose mg/kg/day,5: Popliteal lymph
same,Adverse Findings,"[10]; both, 4 weeks",100: Kidneys-cortical tubular
same,dose-limiting effects,[10],mortality
same,change in RBC counts compared to control means,[10]; 100 mg/kg/day,−13%
same,change in hematocrit compared to control means,[10]; 100 mg/kg/day,−14%
same,"increase in mean phosphorus (up to, vs control mean)",[10]; 100 mg/kg/day,+10%
same,IC50,[11],43 µM
same,IC50,[12],48 µM
same,time-dependent inhibition of CYP2D6,[13]; human liver microsomes,No obvious time-dependent inhibition
same,inhibition of CYP2D6,[13]; up to 30 μM,did not inhibit; also recorded: not an inhibitor
same,time-dependent inhibition of CYP3A4,[14]; human liver microsomes,No obvious time-dependent inhibition
same,inhibition of CYP3A4 (midazolam/testosterone),[14]; up to 30 μM,did not inhibit; also recorded: not an inhibitor
same,dose causing the same inhibition of IL-7-induced pSTAT5 as 5 mg tofacitinib,[15],12 mg
